Article PMC7643960 (PLoS ONE, 2020)
Several values for one entry are separate records, joined by “and”; a condition that tells them apart may be missing. Identical values can stand only once.

Assays:
Type in all cases: cell-based, horse
[1] = system: primary EMM cells MelDuWi; test: MTS cytotoxicity assay; conditions: for IC50: mean (95% CI)
Experimental: (§1) All cells used for the experiments originate from different horses. Primary EMM cells (MelDuWi) and primary equine dermal fibroblasts (PriFi1, PriFi2) belong to the cell culture stock of the Clinic for Horses, University of Veterinary Medicine Hannover, Foundation, Hannover, Germany.
(§2) The cytotoxicity of the compounds was assessed by the CellTiter 96® AQueous One Solution Cell Proliferation Assay (MTS) (Promega GmbH, Mannheim, Germany) as reported. In brief, in order to reach cell confluence within 48 h, cells were seeded into 96-well plates in adequate densities (MelDuWi 30,000 cells/well; PriFi1, PriFi2, eRGO1 20,000 cells/well; sRGO1and sRGO2 15,000 cells/well). […] The formazan dye generated by the metabolic active cells was quantified photometrically. Cytotoxicity assays were performed in six to nine biological replicates with two technical replicates for each combination of cell type, incubation time and compound concentration.
(§3) Technical duplicates with a coefficient of variation of more than 20% were excluded from the cell assay analysis. […] Additional statistical data analysis was conducted with R 3.5.1.. A generalized additive model was fitted for each test (MTS and CVS) and cell type comparison (primary EMM cells and fibroblasts, and primary ES cells and fibroblasts) using the ‘mgcv’ package. Compound concentrations and the duration of incubation were modeled as tensor product smooth interacting with compound and cell line. Cell passage was added as a random effect. An appropriate distribution was selected by the visual inspection of residuals. The p-values were obtained by performing a Wald test for each parameter. Statistical significance was set at 0.05.

primary EMM cells eRGO1 = test: MTS cytotoxicity assay; conditions: for IC50: mean (95% CI)
Experimental: as §1, §2, §3

primary ES cells sRGO1 = test: MTS cytotoxicity assay; conditions: for IC50: mean (95% CI)
Experimental: as §1, §2, §3

primary ES cells sRGO2 = test: MTS cytotoxicity assay; conditions: for IC50: mean (95% CI)
Experimental: as §1, §2, §3

[2] = system: primary equine dermal fibroblasts PriFi1; test: MTS cytotoxicity assay; conditions: for IC50: mean (95% CI)
Experimental: as §1, §2, §3

[3] = system: primary equine dermal fibroblasts PriFi2; test: MTS cytotoxicity assay; conditions: for IC50: mean (95% CI)
Experimental: as §1, §2, §3

[4] = system: equine dermal fibroblasts PriFi2; test: SRB assay after 96 h; conditions: PriFri2, 96 h of drug exposure
Experimental: (§4) Approximately 7.5 × 10^5 cells (MelDuWi) and 1.0 × 10^6 cells (PriFri2 and sRGO2) were seeded in 25 cm^2 cell culture flasks. […] Following 24 and 48 h of incubation, the cells were harvested by mild trypsinization and washed twice with phosphate-buffered saline (PBS) buffer (containing Mg^2+ and Ca^2+). Cells (1.0 × 10^6) were fixed with ethanol (70%, -20°C, for 24 h). After discarding the ethanol, the cells were washed in 1 mL PBS buffer (containing Mg^2+ and Ca^2+) and were centrifuged. The cell pellet was resuspended in 1 mL of staining PBS buffer (containing Mg^2+ and Ca^2+, 10 μg/mL RNASe [Thermofisher] and 15 μg/mL propidium iodide [Sigma-Aldrich, Munich, Germany]) and was incubated for 30 min at room temperature. Analyses were performed using the Attune® FACS machine (Life Technologies, Darmstadt, Germany) collecting data from the BL-2A channel. Doublet cells were excluded from the measurements by plotting BL-2A against BL-2H. A total of 20,000 events were collected for each cell cycle distribution. Each sample was measured in duplicate.
(§5) S1 Appendix. IC50 values measured by SRB Assay after 96 h. […] Measurements were carried out at least as thrice determination.

[5] = system: equine malignant melanoma [EMM] cells MelDuWi; test: SRB assay after 96 h; conditions: 96 h of drug exposure
Experimental: as §4, §5

[6] = system: equine sarcoid [ES] cells sRGO2; test: SRB assay after 96 h; conditions: sRGO2, 96 h of drug exposure
Experimental: as §4, §5

EMM cells MelDuWi = test: AnnexinV-FITC/propidium iodide staining, flow cytometry; conditions: double IC50 concentration
Experimental: (§6) Approximately 7.5 × 10^5 cells (MelDuWi) and 1.0 × 10^6 cells (PriFri2 and sRGO2) were seeded in 25 cm^2 cell culture flasks. […] Following 24 and 48 h of incubation, cells were harvested by mild trypsinization and washed twice with PBS buffer (containing Mg^2+ and Ca^2+). Cells (1.0 × 10^6) were resuspended in AnnexinV binding buffer (BioLegend®, San Diego, US) to a concentration of 1.0 ‧ 10^6 cells/mL. Approximately 100,000 cells were stained with propidium iodide solution ([…], 1 mg/mL) and FITC AnnexinV solution ([…], BioLegend®) for 15 min in the dark at room temperature. After the addition of Annexin V binding buffer ([…]), the suspension was analyzed using the Attune® FACS machine (Life Technologies). After gating for living cells, the data from detectors BL-1A and BL-3A were collected. A total of 20,000 events were collected from each sample and technical duplicates were measured.

ES cells sRGO2 = test: as above; conditions: double IC50 concentration
Experimental: as §6

[7] = system: equine dermal fibroblasts PriFri2; test: as above
Experimental: as §6

[8] = PriFri2, 24 h, double IC50 concentration
[9] = PriFri2, 48 h, double IC50 concentration
[10] = equine dermal fibroblasts, 24 h, versus control

C=C(C)[C@@H]1CC[C@]2(COS(N)(=O)=O)CC[C@]3(C)[C@H](CC[C@@H]4[C@@]5(C)CC[C@H](OS(N)(=O)=O)C(C)(C)[C@@H]5CC[C@]43C)[C@@H]12 [BBS, (3β)-Lup-20(29)-ene-3,28-diol, 3,28-disulfamate]
IC50 ([1]; 5 h): > 100 µM
IC50 ([1]; 24 h): 60 µM
IC50 ([1]; 48 h): 53 µM
IC50 ([1]; 96 h): 32 µM
IC50 (primary EMM cells eRGO1; eRGO1, 5 h): > 100 µM
IC50 (primary EMM cells eRGO1; eRGO1, 24 h): 47 µM
IC50 (primary EMM cells eRGO1; eRGO1, 48 h): 32 µM
IC50 (primary EMM cells eRGO1; eRGO1, 96 h): 16 µM
IC50 (primary ES cells sRGO1; sRGO1, 5 h): > 100 µM
IC50 (primary ES cells sRGO1; sRGO1, 48 h): 25 µM
IC50 (primary ES cells sRGO2; sRGO2, 5 h): > 100 µM
IC50 (primary ES cells sRGO2; sRGO2, 24 h): 45 µM
IC50 (primary ES cells sRGO2; sRGO2, 48 h): 28 µM
IC50 ([2]; PriFi1, 5 h): > 100 µM
IC50 ([2]; PriFi1, 24 h): 59 µM
IC50 ([2]; PriFi1, 48 h): 35 µM
IC50 ([2]; PriFi1, 96 h): 28 µM
IC50 ([3]; PriFi2, 5 h): > 100 µM
IC50 ([3]; PriFi2, 24 h): 77 µM
IC50 ([3]; PriFi2, 48 h): 61 µM
IC50 ([3]; PriFi2, 96 h): 20 µM
IC50 [4]: 19.6 µM
IC50 [5]: 14.9 µM
IC50 [6]: 24.3 µM
AnnexinV staining: Living cells (EMM cells MelDuWi; 24 h): 77,8%
AnnexinV staining: early apop (EMM cells MelDuWi; 24 h): 6,3%
AnnexinV staining: late apop (EMM cells MelDuWi; 24 h): 15,4%
AnnexinV staining: necrotic (EMM cells MelDuWi; 24 h): 0,6%
AnnexinV staining: Living cells (EMM cells MelDuWi; 48 h): 60,6%
AnnexinV staining: early apop (EMM cells MelDuWi; 48 h): 7,5%
AnnexinV staining: late apop (EMM cells MelDuWi; 48 h): 28.2%
AnnexinV staining: necrotic (EMM cells MelDuWi; 48 h): 3,7%
AnnexinV staining: Living cells (ES cells sRGO2; sRGO2, 24 h): 41,1%
AnnexinV staining: early apop (ES cells sRGO2; sRGO2, 24 h): 19,1%
AnnexinV staining: late apop (ES cells sRGO2; sRGO2, 24 h): 38,5%
AnnexinV staining: necrotic (ES cells sRGO2; sRGO2, 24 h): 1,3%
AnnexinV staining: Living cells (ES cells sRGO2; sRGO2, 48 h): 8,7%
AnnexinV staining: apoptotic cells (early and late) (ES cells sRGO2; sRGO2, 48 h): approximately 90%
AnnexinV staining: early apop (ES cells sRGO2; sRGO2, 48 h): 7,5%
AnnexinV staining: late apop (ES cells sRGO2; sRGO2, 48 h): 82% and 82.1%
AnnexinV staining: necrotic (ES cells sRGO2; sRGO2, 48 h): 1,8%
AnnexinV staining: Living cells [7, 8]: 68,0%
AnnexinV staining: early apop [7, 8]: 8,0%
AnnexinV staining: late apop [7, 8]: 22,4%
AnnexinV staining: necrotic [7, 8]: 1,6%
AnnexinV staining: Living cells [7, 9]: 33,1%
AnnexinV staining: early apop [7, 9]: 9,3%
AnnexinV staining: late apop [7, 9]: 54% and 53.6%
AnnexinV staining: necrotic [7, 9]: 4,1%
increase of early apoptotic cells [7, 10]: 5%
increase of late apoptotic cells [7, 10]: 3%

C=C(C)[C@@H]1CC[C@]2(C(=O)OCC(N)(CO)CO)CC[C@]3(C)[C@H](CC[C@@H]4[C@@]5(C)CC[C@H](OC(C)=O)C(C)(C)[C@@H]5CC[C@]43C)[C@@H]12 [NVX-207, 3-acetyl-betulinic acid-2-amino-3-hydroxy-2-hydroxymethyl-propanoate]
IC50 ([1]; 24 h): 18 µM
IC50 ([1]; 48 h): 15 µM
IC50 ([1]; 96 h): 8 µM
times more cytotoxic than BBS ([1]; after 48 h, MTS): ~3 times
IC50 (primary EMM cells eRGO1; eRGO1, 5 h): 9 µM
IC50 (primary EMM cells eRGO1; eRGO1, 24 h): 7 µM
IC50 (primary EMM cells eRGO1; eRGO1, 48 h): 4 µM
IC50 (primary EMM cells eRGO1; eRGO1, 96 h): < 1 µM
times more cytotoxic than BBS (primary EMM cells eRGO1; eRGO1, after 48 h, MTS): ~8 times
IC50 (primary ES cells sRGO1; sRGO1, 5 h): 9 µM
IC50 (primary ES cells sRGO1; sRGO1, 24 h): 4 µM
IC50 (primary ES cells sRGO1; sRGO1, 48 h): 2 µM
times more cytotoxic than BBS (primary ES cells sRGO1; sRGO1, after 48 h, MTS): about 11 times
IC50 (primary ES cells sRGO2; sRGO2, 5 h): 8 µM
IC50 (primary ES cells sRGO2; sRGO2, 24 h): 3 µM
IC50 (primary ES cells sRGO2; sRGO2, 48 h): 1 µM
times more cytotoxic than BBS (primary ES cells sRGO2; sRGO2, after 48 h, MTS): about 25 times
IC50 ([2]; PriFi1, 5 h): 11 µM
IC50 ([2]; PriFi1, 24 h): 4 µM
IC50 ([2]; PriFi1, 48 h): 1 µM
IC50 ([2]; PriFi1, 96 h): < 1 µM
times more cytotoxic than BBS ([2]; PriFi1, after 48 h, MTS): ~34 times
IC50 ([3]; PriFi2, 5 h): 20 µM
IC50 ([3]; PriFi2, 24 h): 7 µM
IC50 ([3]; PriFi2, 96 h): 4 µM
times more cytotoxic than BBS ([3]; PriFi2, after 48 h, MTS): ~9 times
IC50 [4]: 3.8 µM
IC50 [5]: 3.7 µM
IC50 [6]: 3.1 µM
AnnexinV staining: Living cells (EMM cells MelDuWi; 24 h): 48,9%
AnnexinV staining: early apop (EMM cells MelDuWi; 24 h): 20,0%
AnnexinV staining: late apop (EMM cells MelDuWi; 24 h): 30,8%
AnnexinV staining: necrotic (EMM cells MelDuWi; 24 h): 0,3%
AnnexinV staining: Living cells (EMM cells MelDuWi; 48 h): 29,8%
AnnexinV staining: early apop (EMM cells MelDuWi; 48 h): 24,3%
AnnexinV staining: late apop (EMM cells MelDuWi; 48 h): 45% and 44.8%
AnnexinV staining: Living cells (ES cells sRGO2; sRGO2, 24 h): 76,6%
AnnexinV staining: early apop (ES cells sRGO2; sRGO2, 24 h): 3,7%
AnnexinV staining: late apop (ES cells sRGO2; sRGO2, 24 h): 19,1%
AnnexinV staining: necrotic (ES cells sRGO2; sRGO2, 24 h): 0,5%
AnnexinV staining: Living cells (ES cells sRGO2; sRGO2, 48 h): 38,5%
AnnexinV staining: apoptotic cells (early and late) (ES cells sRGO2; sRGO2, 48 h): about 60%
AnnexinV staining: early apop (ES cells sRGO2; sRGO2, 48 h): 12,5%
AnnexinV staining: late apop (ES cells sRGO2; sRGO2, 48 h): 47,9%
AnnexinV staining: apoptotic cells ([7]; PriFi2, 48 h, double IC50 concentration): about 85%
AnnexinV staining: Living cells [7, 8]: 50,0%
AnnexinV staining: early apop [7, 8]: 10,2%
AnnexinV staining: late apop [7, 8]: 37,6%
AnnexinV staining: necrotic [7, 8]: 2,2%
AnnexinV staining: Living cells [7, 9]: 12,3%
AnnexinV staining: early apop [7, 9]: 17,9%
AnnexinV staining: late apop [7, 9]: 67,1%
